Results taken from US8865723B2, “Selective PDE4 B inhibition and improvement in cognition in subjects with brain injury” (Tetra Discovery Partners LLC, priority 2012, dated 2014).

Key:
[1] = test system: subjects suffering a brain injury; details: administered 1 hour after the injury; cited from earlier work
normal uninjured brains = details: cited from earlier work
brain injury = details: within 30 minutes of a brain injury; cited from earlier work
[2] = test system: traumatic brain injury (TBI) rats; test: Water maze test (acquisition and probe trial) 12 weeks after fluid-percussion brain injury; type: in vivo, Sprague Dawley rats
Source text: (§1) Sprague Dawley rats were subjected to moderate parasagittal fluid-percussion brain injury using methods described in Atkins et al, J Neurosci Res 90, 1861-71 (2012). Adult male Sprague Dawley rats (280-300 g; Charles Rivers Laboratories) were anesthetized with 3% isoflurane, 70% N2O, and 30% O2 and received a 4.8-mm craniotomy (3.8 mm posterior to bregma, 2.5 mm lateral to the midline) over the right parietal cortex. Twenty-four hours after the craniotomy, the animals were re-anesthetized (3% isoflurane, 70% N2O, and 30% O2); immobilized with pancuronium bromide (1.0 mg/kg); and mechanically ventilated with 1% isoflurane, 70% N2O, and 30% O2. When physiological measurements had stabilized, the animals received a fluid-percussion pulse (1.8-2.2 atmospheres, 14-16 msec) or sham injury with the fluid-percussion brain injury device. Blood gases, blood pH, and mean arterial blood pressure were monitored for 30 min prior to the fluid percussion brain injury or sham surgery and for up to 1 hr post-injury to maintain normal levels. Injured and sham injured rats were coded such that the investigator assessing the behavior of the animals would not know their injury status.
2-(4-(2-(5-chlorothiophen-2-yl)-5-ethyl-6-methylpyrimidin-4-yl)amino)phenyl)acetic acid (Compound 33) was dissolved in 100% dimethylsulfoxide (DMSO) at 1 mg/ml and then diluted 20 fold into 0.9% sodium chloride (saline) with 2 molar equivalents of sodium hydroxide (0.258 mM) to yield a final concentration of Compound 33 at 0.05 mg/ml in 5% DMSO saline. Rats treated with vehicle received 5% DMSO in saline. Four treatment groups were studied; TBI rats treated with vehicle, TBI rats treated with Compound 33, sham rats treated with vehicle, and sham rats treated with Compound 33. Compound 33 and vehicle were delivered by intraperitoneal injection. Compound 33 was administered at a dose of 0.3 mg/kg. […] At 12 weeks after surgery, the rats were administered either vehicle or Compound 33 only 30 minutes prior to training on the water maze test.
Twelve weeks after surgery, rats were tested for cognitive ability using the water maze test. Animals received vehicle or Compound 33 (0.3 mg/kg, i.p.) 30 min prior to water maze training. The circular pool (122 cm diameter, 60 cm deep) was filled with opaque water at 24° C. and surrounded by distinct, invariant extramaze cues. An escape platform, 9.3 cm in diameter, was submerged 1.5 cm below the water surface. Animals received four 60 s acquisition trials per day for 4 days with inter-trial intervals of 4 min. […] Path length to reach the platform, escape latency, and swim speed were analyzed with EthoVision software (Noldus Information Technology). […]

[3] = test system: traumatic brain injury (TBI) rats; test: Working memory version of the water maze task, week 14 post-surgery; type: in vivo, Sprague Dawley rats; details: 0.3 mg/kg 30 min prior to testing
Source text: as §1, with “status. […]” for “status.”
To assess working memory in TBI animals, a working memory version of the water maze task was used on week 14 post-surgery. […] Escape latency differences between the first location trial and subsequent match trial were measured.

[4] = 0.3 mg/kg i.p. 30 min prior to training, 4 training days, 12 weeks after surgery

With CC(=O)CCCCn1c(=O)c2c(ncn2C)n(C)c1=O [pentoxyfilline] as the molecule, how does the TNF-α [1] read?
The TNF-α was “reduced TNF-α”.

What about the “outcomes after brain injury” value [1] of the same molecule?
Its value is “improved outcomes”.

What does the source list for COc1ccc(C2CNC(=O)C2)cc1OC1CCCC1 (stereo not drawn) [rolipram]?
learning and memory (normal uninjured brains): improve learning and memory; effect on brain injury (brain injury): exacerbates the brain injury

Which “escape latency to reach the hidden platform during acquisition” value [2, 4] does the source give for CCc1c(C)nc(-c2ccc(Cl)s2)nc1Nc1ccc(CC(=O)O)cc1 [Compound 33] here?
The value was “progressive decrease”.

And the “path length to reach the hidden platform during acquisition” value [2, 4]?
The value was “progressive decrease”.

And the “indices of learning (escape latency and path length) on the 4th day of acquisition” value ([2]; 0.3 mg/kg i.p., 4th day of acquisition, versus sham animals)?
Its value is “comparable to sham animals treated with vehicle or Compound 33”.

And the “time in the target quadrant, probe trial (retention)” value ([2]; 24 h after last acquisition trial, platform removed, no drug on probe day)?
The value was “spent less time in the target quadrant as compared to Compound 33-treated TBI animals”.

And the “working memory (escape latency difference between location and match trial)” value [3]?
The value was “this deficit was rescued by Compound 33 treatment”.
